Test [1] concerns Panel NCI-60 (60 carcinoma cell lines). Put plainly: Anticancer activity against human Panel NCI-60 (60 carcinoma cell lines) cells assessed as cell growth inhibition incubated for 48 hrs by sulforhodamine B assay. In kind it is functional. Background: The SRB assay estimates cell density from bound dye.
A further test relates to SK-MEL3. Put plainly: Anticancer activity against human SK-MEL3 cells assessed as reduction in cell viability incubated for 72 hrs by MTT assay. The test is classed as functional, cell-based. The note with it: SK-MEL3, 72 h. For orientation: Tetrazolium dyes change colour on reduction, which living cells bring about.
In the next test the test system is MCF7. The test can be described thus: Anticancer activity against human MCF7 cells assessed as reduction in cell viability incubated for 72 hrs by MTT assay. The test is classed as functional, cell-based. The note with it: MCF7, 72 h.
Another test deals with A-431. Put plainly: Anticancer activity against human A-431 cells assessed as reduction in cell viability incubated for 72 hrs by MTT assay. The test is classed as functional, cell-based. The note with it: A-431, 72 h.
A further test concerns EJ. The test can be described thus: Anticancer activity against human EJ cells assessed as reduction in cell viability incubated for 72 hrs by MTT assay. The test is classed as functional, cell-based.
For the next test, the system named is KB. Put plainly: Anticancer activity against human KB cells assessed as reduction in cell viability incubated for 72 hrs by MTT assay. In kind it is functional, cell-based.
The test system of the next test is SW480. Put plainly: Anticancer activity against human SW480 cells assessed as reduction in cell viability incubated for 72 hrs by MTT assay. The note with it: SW480, 72 h. In kind it is functional, cell-based.
The next test deals with A549. Put plainly: Anticancer activity against human A549 cells assessed as reduction in cell viability incubated for 72 hrs by MTT assay. In kind it is functional, cell-based. The note with it: A549, 72 h.
The test system of a further test is HL-60. The test can be described thus: Anticancer activity against human HL-60 cells assessed as reduction in cell viability incubated for 72 hrs by MTT assay. The test is classed as functional, cell-based. The note with it: HL-60, 72 h.
For another test, the system named is HeLa. The test can be described thus: Anticancer activity against human HeLa cells assessed as reduction in cell viability incubated for 72 hrs by MTT assay. The test is classed as functional, cell-based.

What is called GI50 is the concentration that inhibits growth by half. Consider `C#Cc1cccc(Nc2ncnc3cc(OCCOC)c(OCCOC)cc23)c1` [ERLOTINIB], for which the GI50 in test [1] was 7.29 µM.

Broadly, the IC50 is the concentration that inhibits the measured activity by half. For `CO/N=C(/CN1CCN(c2cc3c(cc2F)c(=O)c(C(=O)O)cn3C2CC2)CC1)c1ccc(Cl)s1`, the IC50 in the test on SK-MEL3, in the test on MCF7, in the test with A-431, in the test with EJ, in the test on KB and with SW480 was < 10 µM in each case.

As for `Cc1ccc(S(=O)(=O)NC(=N)N2CCN(c3cc4c(cc3F)c(=O)c(C(=O)O)cn4C3CC3)CC2)cc1`, the results for the IC50 in the test with A549, in the test on HL-60 and in the test with HeLa were 0.071 µM, 0.043 µM and 0.032 µM, respectively.

As for `CCn1cc(C(=O)O)c(=O)c2cc(F)c(N3CCN(C(=N)NS(=O)(=O)c4ccc(C(F)(F)F)cc4)CC3)cc21`, the values for the IC50 with A549, in the test on HL-60 and in the test on HeLa were 0.071 µM, 0.043 µM and 0.032 µM, respectively.

As for `CCn1cc(C(=O)O)c(=O)c2cc(F)c(N3CCN(C(=N)NS(=O)(=O)c4ccc(Cl)cc4)CC3)cc21`, the IC50 in the test on A549 came to 0.071 µM; with HL-60, 0.043 µM; in the test with HeLa, 0.032 µM.

In the case of `O=C(O)c1cn(C2CC2)c2cc(N3CCN(S(=O)(=O)c4ccc(Cl)c(Cl)c4)CC3)c(F)cc2c1=O`, the GI50 in [1] turned out to be 2.63 µM.

With `CCn1cc(C(=O)O)c(=O)c2cc(F)c(N3CCN(C(=N)NS(=O)(=O)c4ccc(C)cc4)CC3)cc21`, the IC50 in the test on A549 amounted to 0.071 µM; in the test with HL-60, 0.043 µM; in the test on HeLa, 0.032 µM.

Consider `N=C(NS(=O)(=O)c1ccc(C(F)(F)F)cc1)N1CCN(c2cc3c(cc2F)c(=O)c(C(=O)O)cn3C2CC2)CC1`, for which the IC50 was determined as 0.071 µM in the test with A549, 0.043 µM in the test on HL-60 and 0.032 µM with HeLa.

For the molecule `CCn1cc(C(=O)O)c(=O)c2cc(F)c(N3CCN(C(=N)NS(=O)(=O)c4ccccc4Cl)CC3)cc21`, the figures for the IC50 in the test with A549, in the test with HL-60 and in the test with HeLa were 0.071 µM, 0.043 µM and 0.032 µM, respectively.

`CCn1cc(C(=O)O)c(=O)c2cc(F)c(N3CCN(CC(=O)c4ccc(Cl)s4)CC3)cc21`: the IC50 with SK-MEL3, in the test on MCF7, in the test with A-431, with EJ, in the test with KB and in the test on SW480 was < 10 µM each time.

On to `CCn1cc(C(=O)O)c(=O)c2cc(F)c(N3CCN(C(=N)NS(=O)(=O)c4ccccc4C(F)(F)F)CC3)cc21`, for which the IC50 with A549 amounted to 0.071 µM; in the test on HL-60 it was 0.043 µM; in the test on HeLa, 0.032 µM.

For the molecule `CCn1cc(C(=O)O)c(=O)c2cc(F)c(N3CCN(S(=O)(=O)c4cccc5ccccc45)CC3)cc21`, the GI50 in test [1] amounted to 2.63 µM.

For `N=C(NS(=O)(=O)c1cccc(Cl)c1)N1CCN(c2cc3c(cc2F)c(=O)c(C(=O)O)cn3C2CC2)CC1`, the IC50 in the test with A549 stood at 0.071 µM; with HL-60, 0.043 µM; with HeLa, 0.032 µM.

With `CCn1cc(C(=O)O)c(=O)c2cc(F)c(N3CCN(C/C(=N/OC)c4ccc(Cl)s4)CC3)cc21`, the IC50 in the test on SK-MEL3, with MCF7, with A-431, in the test on EJ, in the test with KB and in the test with SW480 was < 10 µM each time.

On to `CCn1cc(C(=O)O)c(=O)c2cc(F)c(N3CCN(C/C(=N/O)c4ccc(Cl)s4)CC3)cc21`, for which the half-maximal inhibitory concentration (IC50) with SK-MEL3, in the test with MCF7, in the test with A-431, in the test on EJ, in the test on KB and in the test with SW480 was < 10 µM each time.

For the molecule `N=C(NS(=O)(=O)c1ccccc1Cl)N1CCN(c2cc3c(cc2F)c(=O)c(C(=O)O)cn3C2CC2)CC1`, the IC50 was determined as 0.071 µM in the test on A549, 0.043 µM in the test with HL-60 and 0.032 µM in the test on HeLa.

For `N=C(NS(=O)(=O)c1ccccc1)N1CCN(c2cc3c(cc2F)c(=O)c(C(=O)O)cn3C2CC2)CC1`, the IC50 in the test on A549 is 0.071 µM; in the test on HL-60 it was 0.043 µM; with HeLa it was 0.032 µM.

Turning to `CCn1cc(C(=O)O)c(=O)c2cc(F)c(N3CCN(C/C(=N/OC)c4ccc(Cl)s4)CC3)nc21`, the IC50 with SK-MEL3, with MCF7, with A-431, with EJ, with KB and in the test on SW480 was < 10 µM each time.

With `CCn1cc(C(=O)O)c(=O)c2cc(F)c(N3CCNCC3)nc21` [ENOXACIN], the IC50 in the test on SK-MEL3, in the test with MCF7, in the test on A-431, in the test with EJ, in the test on KB and in the test with SW480 was > 128 µM in each case.

On to `N=C(NS(=O)(=O)c1ccccc1C(F)(F)F)N1CCN(c2cc3c(cc2F)c(=O)c(C(=O)O)cn3C2CC2)CC1`, for which the IC50 in the test with A549 was determined as 0.071 µM; in the test with HL-60, 0.043 µM; in the test on HeLa, 0.032 µM.

Regarding `O=C(O)c1cn(C2CC2)c2cc(N3CCN(C/C(=N/OCc4ccccc4)c4ccc(Cl)s4)CC3)c(F)cc2c1=O`, the IC50 with SK-MEL3, in the test on MCF7, with A-431, in the test with EJ, with KB and with SW480 was < 10 µM each time.

In the case of `CCn1cc(C(=O)O)c(=O)c2cc(F)c(N3CCN(C(=N)NS(=O)(=O)c4cccc(Cl)c4)CC3)cc21`, the IC50 is 0.071 µM in the test with A549, 0.043 µM in the test with HL-60 and 0.032 µM with HeLa.

Take `CCn1cc(C(=O)O)c(=O)c2cc(F)c(N3CCN(C/C(=N/O)c4ccc(Cl)s4)CC3)nc21`: the IC50 with SK-MEL3, with MCF7, with A-431, in the test with EJ, in the test with KB and with SW480 was < 10 µM throughout.

Take `CCn1cc(C(=O)O)c(=O)c2cc(F)c(N3CCN(C(=N)NS(=O)(=O)c4ccccc4)CC3)cc21`: the IC50 came to 0.071 µM in the test with A549, 0.043 µM with HL-60 and 0.032 µM in the test on HeLa.

Regarding `O=C(O)c1cn(C2CC2)c2cc(N3CCN(C/C(=N/O)c4ccc(Cl)s4)CC3)c(F)cc2c1=O`, the IC50 with SK-MEL3, in the test on MCF7, in the test with A-431, in the test on EJ, in the test on KB and in the test on SW480 was < 10 µM in each case.

Consider `N=C(NS(=O)(=O)c1ccc(Cl)cc1)N1CCN(c2cc3c(cc2F)c(=O)c(C(=O)O)cn3C2CC2)CC1`, for which the IC50 was 0.071 µM in the test on A549, 0.043 µM with HL-60 and 0.032 µM in the test on HeLa.

Turning to `CCn1cc(C(=O)O)c(=O)c2cc(F)c(N3CCN(CC(=O)c4ccc(Cl)s4)CC3)nc21`, the IC50 in the test on SK-MEL3, in the test on MCF7, with A-431, in the test on EJ, in the test with KB and with SW480 was < 10 µM in each case.

For the molecule `O=C(CN1CCN(c2cc3c(cc2F)c(=O)c(C(=O)O)cn3C2CC2)CC1)c1ccc(Cl)s1`, the IC50 with SK-MEL3, in the test with MCF7, in the test on A-431, with EJ, with KB and with SW480 was < 10 µM in each case.

For the molecule `CCn1cc(C(=O)O)c(=O)c2cc(F)c(N3CCN(C/C(=N/OCc4ccccc4)c4ccc(Cl)s4)CC3)cc21`, the IC50 in the test with SK-MEL3, in the test with MCF7, in the test on A-431, with EJ, with KB and with SW480 was < 10 µM throughout.

The record behind these values is ChEMBL document CHEMBL5233217, “Modification of 7-piperazinylquinolone antibacterials to promising anticancer lead compounds: Synthesis and in vitro studies” (Eur J Med Chem, 2020).
